{"source": "patent US7884074B2", "about": "“Compounds and methods for prevention and/or treatment of inflammation using the same” (Ikaria Development Subsidiary Two, LLC, priority 2008, dated 2011)", "test_system": "RhoA", "experiment": "thrombin induced RhoA activation in HUVEC culture (active RhoA pull-down, Western blot)", "type": "cell-based, human", "details": "5 U/ml thrombin alone, 5 min", "protocol": "The biological effect of the compounds was established in a model using thrombin induced RhoA activation in human umbilical vein endothelial cell (HUVEC) culture.\nHUVEC are grown to confluence under standard conditions. Before induction of Rho activity HUVEC were starved for 4 h by using IMDM (Gibco) without growth factor and serum supplements. After the starvation period, 5 U/ml Thrombin (Calbiochem) or 5 U thrombin plus 50 μg/ml of test compound was added to the starvation medium for 1, 5 and 10 min. Active RhoA was isolated using Rho Assay Reagent from Upstate according to manufactures instructions. Isolates were separated on a 15% polyacrylamide gel and blotted on Nitrocellulose-Membrane (Bio-Rad). RhoA was detected by using Anti-Rho (-A, -B, -C), clone55 from Upstate (1:500).", "data": [{"substance": "thrombin", "values": [{"measurement": "Relative RhoA stimulation compared to unstimulated control", "result": 5.6}]}]}
